Values of other authors in patent US20220000855A1, “AN AURORA A KINASE INHIBITOR FOR USE IN THE TREATMENT OF NEUROBLASTOMA” (Eli Lilly and Company, priority 2018, published 2022).

Conditions: background statement

| Structure (SMILES) | neutropenia and other toxic effects associated with use |
| --- | --- |
| COc1cc(Nc2ncc3c(n2)-c2ccc(Cl)cc2C(c2c(F)cccc2OC)=NC3)ccc1C(=O)O [alisertib] | unacceptably high levels of neutropenia and other toxic effects |
| Cc1cc(Nc2cc(N3CCN(C)CC3)nc(Sc3ccc(NC(=O)C4CC4)cc3)n2)[nH]n1 [tozasertib] | unacceptably high levels of neutropenia and other toxic effects |
